Data: ChEMBL document CHEMBL5055685, “Discovery of the First Potent IDO1/IDO2 Dual Inhibitors: A Promising Strategy for Cancer Immunotherapy” (J Med Chem, 2021)

Experiments:
[1] = molecular target: T1, Indoleamine 2,3-dioxygenase 2 (Homo sapiens) (UniProt Q6ZQW0); test: Inhibition of IDO2 (unknown origin) assessed as reduction in kynurenine formation using L-tryptophan as substrate by methylene blue reagent based assay relative to control; design: concentration or dose not given beside the values; settings: concentration not given here
T1 sequence (whole entry): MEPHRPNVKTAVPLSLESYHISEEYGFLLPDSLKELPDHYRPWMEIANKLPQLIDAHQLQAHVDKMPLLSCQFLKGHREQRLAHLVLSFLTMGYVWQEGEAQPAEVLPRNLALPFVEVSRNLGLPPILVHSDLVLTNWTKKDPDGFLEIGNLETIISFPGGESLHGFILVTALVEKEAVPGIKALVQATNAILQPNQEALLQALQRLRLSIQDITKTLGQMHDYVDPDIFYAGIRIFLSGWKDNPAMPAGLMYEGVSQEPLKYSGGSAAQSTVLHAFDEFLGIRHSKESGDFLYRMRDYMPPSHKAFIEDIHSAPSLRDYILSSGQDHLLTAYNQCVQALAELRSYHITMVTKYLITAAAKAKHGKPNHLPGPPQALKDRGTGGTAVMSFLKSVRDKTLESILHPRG

[2] = molecular target: T2, Indoleamine 2,3-dioxygenase 1 (Homo sapiens, UniProt P14902); test: Inhibition of IDO1 (unknown origin) assessed as reduction in kynurenine formation using L-tryptophan as substrate by methylene blue reagent based assay relative to control; design: concentration or dose not given beside the values; settings: concentration not given here
Target sequence in this assay (P14902 whole entry, looked up): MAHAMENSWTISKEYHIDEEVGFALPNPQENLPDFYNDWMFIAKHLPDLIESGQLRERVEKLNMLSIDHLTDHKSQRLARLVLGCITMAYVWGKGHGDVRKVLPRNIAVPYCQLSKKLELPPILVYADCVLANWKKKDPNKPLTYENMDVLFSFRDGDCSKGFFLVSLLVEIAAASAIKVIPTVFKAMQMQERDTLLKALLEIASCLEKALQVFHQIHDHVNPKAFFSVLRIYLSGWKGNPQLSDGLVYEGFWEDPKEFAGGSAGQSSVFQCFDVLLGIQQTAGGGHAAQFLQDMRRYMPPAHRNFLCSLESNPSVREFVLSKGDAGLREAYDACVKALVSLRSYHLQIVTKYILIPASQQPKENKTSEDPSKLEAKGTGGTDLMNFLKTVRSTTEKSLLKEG

[3] = molecular target: T2, Indoleamine 2,3-dioxygenase 1
Target sequence in this assay (P14902 whole entry): as the sequence (P14902 whole entry, looked up) above

[4] = molecular target: T2, Indoleamine 2,3-dioxygenase 1; test: Inhibition of IDO1 (unknown origin) assessed as reduction in kynurenine formation using L-tryptophan as substrate by methylene blue reagent based assay
Target sequence in this assay (P14902 whole entry): as the sequence (P14902 whole entry, looked up) above

[5] = molecular target: T3, Indoleamine 2,3-dioxygenase 2 (Homo sapiens, UniProt Q6ZQW0); test: Inhibition of IDO2 (unknown origin) assessed as reduction in kynurenine formation using L-tryptophan as substrate by methylene blue reagent based assay
T3 sequence (Q6ZQW0 whole entry): T1 sequence (whole entry)

inhibition [1] [%]	inhibition [2] [%]	IC50 [3] [nM]	IC50 [4] [nM]	IC50 [5] [nM]	Compound
15	8	–	–	–	COc1ccc(-c2cn(CCNc3nonc3/C(=N/O)Nc3ccc(F)c(Br)c3)nn2)cc1
–	–	7	–	–	C[C@]1([C@H](O)C[C@H]2c3c(F)cccc3-c3cncn32)CC[C@H](O)CC1
–	–	–	134	930	CC(OCCO)c1cn(CCNc2nonc2/C(=N/O)Nc2ccc(F)c(Br)c2)nn1 (stereo not drawn)
–	–	–	80	1080	OCCCCc1cn(CCNc2nonc2/C(=N/O)Nc2ccc(F)c(Br)c2)nn1
–	–	–	77	794	OCc1cn(CCNc2nonc2/C(=N/O)Nc2ccc(F)c(Br)c2)nn1
12	7	–	–	–	Nc1cccc(-c2cn(CCNc3nonc3/C(=N/O)Nc3ccc(F)c(Br)c3)nn2)c1
–	–	–	98	958	OCCCc1cn(CCNc2nonc2/C(=N/O)Nc2ccc(F)c(Br)c2)nn1
–	–	–	247	1170	OCCc1cn(CCNc2nonc2/C(=N/O)Nc2ccc(F)c(Br)c2)nn1
–	–	–	51	689	CC(C)CC(C)(O)c1cn(CCNc2nonc2/C(=N/O)Nc2ccc(F)c(Br)c2)nn1 (stereo not drawn)
–	–	–	176	1170	CC(C)(OCCO)c1cn(CCNc2nonc2/C(=N/O)Nc2ccc(F)c(Br)c2)nn1
14	12	–	–	–	Cc1ccc(-c2cn(CCNc3nonc3/C(=N/O)Nc3ccc(F)c(Br)c3)nn2)cc1
–	–	–	73	947	CCC(O)c1cn(CCNc2nonc2/C(=N/O)Nc2ccc(F)c(Br)c2)nn1 (stereo not drawn)
